Measurements: article PMC5981863 (ACS infectious diseases, 2017)
pKi: −log10 of the molar value. Converted amounts (≈) assume the structure as drawn.

Assays:
[1] = test system: E. coli DH10B pBCSK, blaADC-7, N213A; test: MIC, agar dilution and liquid microdilution; type: cell-based, Escherichia coli
[2] = test system: E. coli DH10B pBCSK, blaADC-7, R340A; test: MIC, agar dilution and liquid microdilution; type: cell-based, Escherichia coli
[3] = test system: E. coli DH10B pBCSK, blaADC-7, R340K; test: MIC, agar dilution and liquid microdilution; type: cell-based, Escherichia coli
[4] = test system: E. coli DH10B; test: MIC, agar dilution and liquid microdilution; type: cell-based, Escherichia coli
[5] = test system: A. baumannii M9; test: MIC, agar dilution and liquid microdilution; type: cell-based
[6] = test system: E. coli DH10B pBCSK, blaADC-7; test: MIC, agar dilution and liquid microdilution; type: cell-based, Escherichia coli
[7] = test system: ADC-7; test: Thermal denaturation by circular dichroism; type: binding, Acinetobacter baumannii; conditions: ADC-7 alone Tm ≈61 °C
[8] = target: ADC-7/R340A mutant; test: Competition kinetics with nitrocefin; type: biochemical, Acinetobacter baumannii
[9] = MIC of CAZ in combination with 4 μg/mL BATSI compound

SMILES | MIC ([1]; Escherichia coli) | MIC ([2]; Escherichia coli) | MIC ([3]; Escherichia coli) | MIC ([4]; Escherichia coli, DH10B) | MIC ([5]; Acinetobacter baumannii, M9) | MIC ([5]; CAZ alone) | MIC ([6]; Escherichia coli) | MIC [1, 9] | MIC [2, 9] | MIC [3, 9] | MIC [4, 9] | MIC [5, 9] | MIC [6, 9] | Tm of ADC-7/compound complex [7] | pKi [8]
CC(C)(O/N=C(\C(=O)N[C@@H]1C(=O)N2C(C(=O)[O-])=C(C[n+]3ccccc3)CS[C@H]12)c1csc(N)n1)C(=O)O [CAZ, ceftazidime, reference compound] | 32 µg/mL (≈ 58.5 µM) | 32 µg/mL (≈ 58.5 µM) | 32 µg/mL (≈ 58.5 µM) | 1 µg/mL (≈ 1.83 µM) | > 64 µg/mL | >64 µg/mL | 64 µg/mL (≈ 117 µM) |  |  |  |  |  |  |  | 
O=S(=O)(NCB(O)O)c1ccc(-c2nn[nH]n2)cc1 [CR157] |  |  |  |  |  |  |  | 2 µg/mL | 0.5 µg/mL | 1 µg/mL | 0.5 µg/mL | 8 µg/mL | 1 µg/mL |  | 
O=S(=O)(NCB(O)O)c1ccc(-c2nn[nH]n2)nc1 [CR161] |  |  |  |  |  |  |  | 2 µg/mL | 1 µg/mL | 1 µg/mL | 0.5 µg/mL |  | 0.5 µg/mL |  | 
O=C(O)c1cccc(CS(=O)(=O)NCB(O)O)c1 [CR167] |  |  |  |  |  |  |  | 4 µg/mL | 2 µg/mL | 4 µg/mL | 0.5 µg/mL | 16 µg/mL | 1 µg/mL |  | 
O=S(=O)(NCB(O)O)c1ccc(-c2nn[nH]n2)cc1C(F)(F)F [CR192] |  |  |  |  |  |  |  | 1 µg/mL | 0.5 µg/mL | 2 µg/mL | 0.5 µg/mL | 8 µg/mL | 2 µg/mL | ~70 °C | 8.08
O=C(Cc1cccs1)NCB(O)O [achiral cephalothin, reference compound] |  |  |  |  |  |  |  | 32 µg/mL | 32 µg/mL | 32 µg/mL | 0.5 µg/mL | 32 µg/mL | 32 µg/mL |  | 
